One series concerns the target hERG (KCNH2) (Homo sapiens, UniProt Q12809). Kind of series: (§1) Inhibition of hERG transfected in CHO cells by electrophysiology. It counts as toxicity, cell-based. Conditions: human, CHO cells transfected with hERG. (In general: hERG is a cardiac potassium channel; its block is linked to QT prolongation.)
The subject of a further series is MDR1 (P-gp), BCRP. Kind of series: Efflux ratio in MDCK-MDR1-BCRP cells. The settings on record: dog. The class given is ADME, cell-based, Canis lupus familiaris.
Series [1] in a line: Solubility of compound at pH 7.4. The class given is physicochemical. The settings on record: buffer.
Series [2] in a line: Ratio of unbound drug concentration in brain to plasma of rat. Conditions: brain and plasma (unbound), read-out: K(p,uu,brain). The class given is ADME, cell-free.
A short description of series [3]: Inhibition of cell proliferation of human DLD-1 cells expressing BRCA2-/- incubated for 7 days by Sytox green dye based analysis. It counts as functional. The settings on record: DLD-1, 168 h.
A short description of series [4]: Lipophilicity, log D of compound at pH 7.4. It counts as physicochemical. Conditions: buffer.
Series [5] can be described thus: Intrinsic clearance in human liver microsomes. It counts as ADME, Microsome. The settings on record: read-out: CLH.
Series [6] deals with Voltage-gated inwardly rectifying potassium channel KCNH2 (Homo sapiens, UniProt Q12809). The description is as §1. The class given is toxicity, cell-based.
Sequence of Voltage-gated inwardly rectifying potassium channel KCNH2 (Q12809 whole entry): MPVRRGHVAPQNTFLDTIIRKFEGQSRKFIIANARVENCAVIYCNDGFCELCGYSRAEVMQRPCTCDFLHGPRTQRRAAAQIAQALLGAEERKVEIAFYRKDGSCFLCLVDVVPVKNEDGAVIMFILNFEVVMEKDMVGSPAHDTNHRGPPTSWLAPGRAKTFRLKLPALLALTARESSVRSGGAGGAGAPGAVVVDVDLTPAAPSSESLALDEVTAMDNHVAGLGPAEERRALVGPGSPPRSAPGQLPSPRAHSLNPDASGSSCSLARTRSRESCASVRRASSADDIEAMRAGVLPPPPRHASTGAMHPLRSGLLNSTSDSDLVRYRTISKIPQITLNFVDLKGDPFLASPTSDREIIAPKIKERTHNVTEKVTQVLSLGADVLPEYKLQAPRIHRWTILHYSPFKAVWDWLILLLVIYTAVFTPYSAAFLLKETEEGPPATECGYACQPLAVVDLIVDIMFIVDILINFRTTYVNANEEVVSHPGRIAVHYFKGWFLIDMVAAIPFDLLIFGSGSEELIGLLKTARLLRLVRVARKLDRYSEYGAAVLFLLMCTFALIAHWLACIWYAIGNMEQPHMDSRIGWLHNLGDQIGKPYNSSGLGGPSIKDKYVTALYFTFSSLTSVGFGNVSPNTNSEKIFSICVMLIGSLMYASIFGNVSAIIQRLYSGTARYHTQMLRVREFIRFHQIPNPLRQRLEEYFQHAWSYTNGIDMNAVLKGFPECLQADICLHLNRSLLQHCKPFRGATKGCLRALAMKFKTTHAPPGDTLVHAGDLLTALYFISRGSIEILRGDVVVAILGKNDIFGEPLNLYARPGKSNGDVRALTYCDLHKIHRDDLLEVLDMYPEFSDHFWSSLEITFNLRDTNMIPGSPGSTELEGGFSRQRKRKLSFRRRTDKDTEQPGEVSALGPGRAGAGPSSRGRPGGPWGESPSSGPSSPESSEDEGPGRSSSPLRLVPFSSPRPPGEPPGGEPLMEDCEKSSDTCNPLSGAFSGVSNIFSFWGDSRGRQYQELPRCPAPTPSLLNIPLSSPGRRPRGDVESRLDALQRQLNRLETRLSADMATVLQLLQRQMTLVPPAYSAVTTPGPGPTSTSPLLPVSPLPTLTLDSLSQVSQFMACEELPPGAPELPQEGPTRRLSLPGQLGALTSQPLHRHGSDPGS
Series [7] deals with Poly [ADP-ribose] polymerase 1 (Homo sapiens, UniProt P09874). The series can be described thus: Inhibition of N-terminal 6His-tagged full-length recombinant human PARP1 by fluorescence anisotropy assay. For orientation: In fluorescence polarisation assays a small probe gives low polarisation when free and higher when bound to something large.
Sequence of Poly [ADP-ribose] polymerase 1 (P09874 whole entry): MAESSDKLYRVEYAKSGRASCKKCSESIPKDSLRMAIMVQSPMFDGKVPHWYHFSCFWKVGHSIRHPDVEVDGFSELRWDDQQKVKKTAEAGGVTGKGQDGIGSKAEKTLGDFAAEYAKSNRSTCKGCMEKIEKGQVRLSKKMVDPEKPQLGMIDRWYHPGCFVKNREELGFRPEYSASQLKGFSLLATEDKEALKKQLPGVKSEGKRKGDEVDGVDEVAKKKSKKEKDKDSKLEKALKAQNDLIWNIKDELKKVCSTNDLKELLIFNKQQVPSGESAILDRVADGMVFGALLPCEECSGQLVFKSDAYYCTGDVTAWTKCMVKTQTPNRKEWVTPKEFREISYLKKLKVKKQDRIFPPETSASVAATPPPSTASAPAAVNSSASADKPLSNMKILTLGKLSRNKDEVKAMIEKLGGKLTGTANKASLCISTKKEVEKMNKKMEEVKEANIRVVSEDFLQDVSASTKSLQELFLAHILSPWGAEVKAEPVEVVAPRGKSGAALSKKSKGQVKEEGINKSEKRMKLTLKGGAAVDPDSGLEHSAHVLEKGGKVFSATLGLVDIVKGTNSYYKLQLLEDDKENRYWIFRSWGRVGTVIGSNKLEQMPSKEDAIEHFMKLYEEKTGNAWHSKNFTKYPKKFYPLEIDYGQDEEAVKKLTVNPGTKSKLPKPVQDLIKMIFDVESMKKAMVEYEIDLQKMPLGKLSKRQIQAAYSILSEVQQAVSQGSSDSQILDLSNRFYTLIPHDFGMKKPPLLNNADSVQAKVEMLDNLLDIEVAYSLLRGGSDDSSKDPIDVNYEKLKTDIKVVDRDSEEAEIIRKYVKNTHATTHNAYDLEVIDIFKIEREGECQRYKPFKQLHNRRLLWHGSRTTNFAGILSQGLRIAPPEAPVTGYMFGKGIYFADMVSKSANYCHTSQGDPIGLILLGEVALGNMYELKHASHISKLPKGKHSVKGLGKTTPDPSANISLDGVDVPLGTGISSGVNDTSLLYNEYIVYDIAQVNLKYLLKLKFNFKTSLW
For series [8], the target named is Poly [ADP-ribose] polymerase 2 (Homo sapiens, UniProt Q9UGN5). Kind of series: Inhibition of N-terminal 6His-tagged full-length recombinant human PARP2 by fluorescence anisotropy assay.
Sequence of Poly [ADP-ribose] polymerase 2 (Q9UGN5 whole entry): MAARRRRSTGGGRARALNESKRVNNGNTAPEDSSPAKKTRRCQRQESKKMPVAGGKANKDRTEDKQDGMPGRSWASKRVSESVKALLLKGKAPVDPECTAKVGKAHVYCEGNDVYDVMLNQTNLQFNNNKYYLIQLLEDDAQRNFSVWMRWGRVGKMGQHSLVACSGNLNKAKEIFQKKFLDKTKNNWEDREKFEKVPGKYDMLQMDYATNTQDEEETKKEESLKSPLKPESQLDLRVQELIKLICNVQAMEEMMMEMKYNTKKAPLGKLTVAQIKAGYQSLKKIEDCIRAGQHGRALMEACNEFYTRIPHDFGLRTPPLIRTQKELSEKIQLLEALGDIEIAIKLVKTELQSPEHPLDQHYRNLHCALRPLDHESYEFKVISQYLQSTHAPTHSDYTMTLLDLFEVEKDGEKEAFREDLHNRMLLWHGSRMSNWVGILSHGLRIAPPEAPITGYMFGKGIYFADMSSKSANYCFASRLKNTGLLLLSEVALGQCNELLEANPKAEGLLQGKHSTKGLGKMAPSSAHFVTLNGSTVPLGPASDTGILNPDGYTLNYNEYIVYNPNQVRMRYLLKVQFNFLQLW
Series [9] is described as follows: Half life in Cynomolgous monkey at 1 mg/kg, po or 0.5 mg/kg, iv. It counts as ADME, organism-based, Macaca fascicularis. Conditions: cynomolgus monkey, in vivo.
Series [10] is described as follows: Oral bioavailability in Han Wistar rat at 1 mg/kg. The class given is ADME, organism-based. Conditions: in vivo.
The nature of series [11]: Unbound fraction in Beagle dog plasma at 1 mg/kg, po or 1 mg/kg, iv. It counts as ADME, organism-based, Canis lupus familiaris. Conditions: in vivo.
Series [12] in a line: Volume of distribution at steady state in CD-1 mouse at 1 mg/kg, po or 0.5 mg/kg, iv. The class given is ADME, organism-based. Conditions: in vivo.
Series [13] can be described thus: Half life in CD-1 mouse at 1 mg/kg, po or 0.5 mg/kg, iv. The class given is ADME, organism-based. Conditions: in vivo.
The nature of series [14]: Unbound fraction in Cynomolgous monkey plasma at 1 mg/kg, po or 0.5 mg/kg, iv. It counts as ADME, organism-based, Macaca fascicularis. The settings on record: cynomolgus monkey, in vivo.
Series [15] in a line: Oral bioavailability […] in CD-1 mouse at 1 mg/kg. The class given is ADME, organism-based. Conditions: in vivo.
A short description of series [16]: Toxicity in mouse xenografted with human DLD-1 cells expressing BRCA2-/- assessed as drug tolerance at 3 to 30 mg/kg administered once daily for 5 weeks. It counts as organism-based. Conditions: in vivo, 840 h, dose 3-30 mg/kg. For orientation: A xenograft is tissue or cells of one species grown in another, often human tumour cells in immunodeficient mice.
Series [17] in a line: Oral bioavailability in Cynomolgous monkey at 1 mg/kg. It counts as ADME, organism-based, Macaca fascicularis. Conditions: cynomolgus monkey, in vivo.
The nature of series [18]: Toxicity in mouse xenografted with human DLD-1 cells expressing BRCA2-/- assessed as body weight reduction at 3 to 30 mg/kg administered once daily for 5 weeks. The settings on record: in vivo, 840 h, dose 3-30 mg/kg. It counts as organism-based.
The subject of series [19] is DLD-1. The series can be described thus: Antitumor activity against human DLD-1 cells expressing BRCA2-/- xenografted in mouse at 10 mg/kg administered once daily for 5 weeks relative to control. The settings on record: DLD-1, 840 h, read-out: TGI. The class given is functional.
Series [20] has as its system DLD-1. The series can be described thus: Antitumor activity against human DLD-1 cells expressing BRCA2-/- xenografted in mouse at 30 mg/kg administered once daily for 5 weeks relative to control. It counts as functional. Conditions: DLD-1, 840 h, read-out: TGI.
Series [21] in a line: Volume of distribution at steady state in Beagle dog at 1 mg/kg, po or 1 mg/kg, iv. Conditions: in vivo. It counts as ADME, organism-based, Canis lupus familiaris.
Series [22] in a line: Volume of distribution at steady state in Cynomolgous monkey at 1 mg/kg, po or 0.5 mg/kg, iv. It counts as ADME, organism-based, Macaca fascicularis. The settings on record: cynomolgus monkey, in vivo.
Series [23] is described as follows: Half life in Han Wistar rat at 1 mg/kg, po or 1 mg/kg, iv. The class given is ADME, organism-based. Conditions: in vivo.
In series [24] the test system is DLD-1. The series can be described thus: Antitumor activity against human DLD-1 cells expressing BRCA2-/- xenografted in mouse at 3 mg/kg administered once daily for 5 weeks relative to control. It counts as functional. The settings on record: DLD-1, 840 h, read-out: TGI.
Series [25] in a line: Volume of distribution at steady state in Han Wistar rat at 1 mg/kg, po or 1 mg/kg, iv. It counts as ADME, organism-based. Conditions: in vivo.
Series [26] in a line: Unbound fraction in Han Wistar rat plasma at 1 mg/kg, po or 1 mg/kg, iv. The class given is ADME, organism-based. The settings on record: in vivo.
A short description of series [27]: Oral bioavailability in Beagle dog at 1 mg/kg. The class given is ADME, organism-based, Canis lupus familiaris. The settings on record: in vivo.
A short description of series [28]: Unbound fraction in CD-1 mouse plasma at 1 mg/kg, po or 0.5 mg/kg, iv. The class given is ADME, organism-based. Conditions: in vivo.
Series [29] is described as follows: Half life in Beagle dog at 1 mg/kg, po or 1 mg/kg, iv. The class given is ADME, organism-based, Canis lupus familiaris. The settings on record: in vivo.
For series [30], the system named is DLD-1. The series can be described thus: Antitumor activity against human DLD-1 cells expressing BRCA2-/- xenografted in athymic nude Foxn1nu mouse at 100 mg/kg administered once daily for 28 days relative to control. The class given is functional. Conditions: DLD-1, 672 h, time 28 day, read-out: TGI.

The structures appear in SMILES notation. pIC50: −log10 of the molar value. Converted amounts (≈) assume the structure as drawn. Where only a bound is given, the exact number is not on record here.

This note sets out measurements from ChEMBL document CHEMBL6078698, “Discovery of 6-Fluoro-5-{4-[(5-fluoro-2-methyl-3-oxo-3,4-dihydroquinoxalin-6-yl)methyl]piperazin-1-yl}-N-methylpyridine-2-carboxamide (AZD9574): A CNS-Penetrant, PARP1-Selective Inhibitor” (J Med Chem, 2024).

Sequence of hERG (KCNH2) (Q12809 whole entry): as the sequence (Q12809 whole entry) above

As a reminder, the pIC50 is the IC50 on a negative log10 scale, so that one unit is a factor of ten. Broadly, the efflux ratio is a quotient of directional permeabilities that is used to spot active efflux. One may read the solubility as how much of the substance goes into solution per volume. A word on the logD: it is lipophilicity at a set pH, counting ionised and neutral species. Consider `CNC(=O)c1ccc(N2CCN(Cc3ccc4nc(C)c(=O)[nH]c4c3F)CC2)c(C)n1`, for which the negative logarithm of the IC50 (pIC50) against hERG (KCNH2) is less than 4.40; in series [3], 8.15. In addition, the efflux ratio with MDR1 (P-gp), BCRP amounted to 1.6. The compound further came in with a solubility in series [1] of 11 µM (≈ 4.67 µg/mL). Besides, the Kp uu in series [2] worked out at 0.19. Besides, the logD in series [4] was 2.2. In series [5], the microsomal CLint is less than 3 µL/min/mg.

As to `CCc1nc2ccc(CN3CCN(c4ccc(F)nc4)CC3)cc2[nH]c1=O`, the pIC50 in [6] was less than 4.40; in series [7], 8.05; in series [3] it was 7.18; in series [8] it was 4.34. The efflux ratio in the series on MDR1 (P-gp), BCRP is 0.5. The compound also displayed a solubility in series [1] of 9 µM (≈ 3.31 µg/mL). Besides, in series [4], the logD amounted to 2.6. The microsomal CLint in [5] is less than 3 µL/min/mg.

As for `CNC(=O)c1ccc(N2CCN(Cc3ccc4nc(C)c(=O)[nH]c4c3)CC2)c(F)n1`, the efflux ratio in the series on MDR1 (P-gp), BCRP came to 3.6. This compound also showed a solubility in series [1] of 26 µM (≈ 10.7 µg/mL). Besides, the pIC50 in [7] is 8.10; in series [8], 4.59. Further, in series [4], the pH-dependent lipophilicity (logD) worked out at 2.1. Besides, the microsomal CLint in series [5] is less than 3 µL/min/mg.

Regarding `CCc1cc2ccc(CN3CCN(c4cnc(C(=O)NC)cc4C)CC3)cc2[nH]c1=O`, the negative logarithm of the IC50 (pIC50) in [6] is 5.10; in series [7], 8.22; in [3], 5.94; in [8], 5.20. This compound also yielded a solubility in [1] of 3 µM (≈ 1.26 µg/mL). The same compound came in with a logD in series [4] of 3.3. Besides, the microsomal CLint in [5] stood at 33 µL/min/mg.

Consider `CNC(=O)c1ccc(N2CCN(Cc3ccc4c5c(c(=O)[nH]c4c3)COCC5)CC2)cn1`, for which the pIC50 is less than 4.40 in [6], 8.40 in series [7] and 6.16 in series [8]. Moreover, the efflux ratio in the series with MDR1 (P-gp), BCRP is 6.8. The compound further returned a solubility in series [1] of 1 µM (≈ 0.434 µg/mL). For the same compound, the logD in series [4] stood at 2. The microsomal CLint in series [5] was 17 µL/min/mg.

In general, half-life refers to the time in which the quantity being followed falls by half. `CNC(=O)c1ccc(N2CCN(Cc3ccc4nc(C)c(=O)[nH]c4c3F)CC2)c(F)n1` [AZD-9574]: the half-life is 10.5 h in series [9], 4 h in [13], 6.3 h in series [23] and 12 h in series [29]. The negative logarithm of the IC50 (pIC50) is less than 4.40 at hERG (KCNH2) and 7.80 in series [3]. In addition, the bioavailability in series [10] was 50%; in series [15] it was 116%; in series [17], 95%; in series [27], 91%. In addition, the solubility in series [1] amounted to 19 µM (≈ 8.14 µg/mL). Moreover, the Fu in series [11] came out at 25%; in series [14] it was 16%; in series [26], 13%; in series [28], 20%. Further, the Vdss in series [12] came out at 2.7 L/kg; in [21], 1.1 L/kg; in series [22] it was 1.7 L/kg; in series [25] it was 2.3 L/kg. Besides, the Kp uu in series [2] was 0.31. In addition, the Activity entry is given as “Non-toxic” in [16] and “Toxic” in series [18]. This compound also returned a logD in series [4] of 1.9. Further, the inhibition in vivo at 10 mg/kg in the series on DLD-1 [19] turned out to be 73%. The inhibition in vivo at 30 mg/kg in the series on DLD-1 [20] is 69%. In addition, the inhibition in vivo at 3 mg/kg in the series on DLD-1 [24] stood at 43%. The microsomal CLint in [5] is less than 3 µL/min/mg.

For the compound `NC(=O)c1cccc2cn(-c3ccc([C@@H]4CCCNC4)cc3)nc12` [NIRAPARIB], the Kp uu in series [2] was less than 0.1. In [3], this compound had a pIC50 of 6.78.

For the compound `O=C(c1cc(Cc2n[nH]c(=O)c3ccccc23)ccc1F)N1CCN(C(=O)C2CC2)CC1` [OLAPARIB], the Kp uu in [2] is less than 0.1. Also, the inhibition in vivo at 100 mg/kg in the series with DLD-1 [30] turned out to be 40%.

As for `C[C@]12CCCN1CC1=NNC(=O)c3cc(F)cc4[nH]c2c1c34` [PAMIPARIB], in series [2], the Kp uu turned out to be 0.1. Besides, the pIC50 in series [3] is 8.15; in series [8] it was 8.22.

`CNCc1ccc(-c2[nH]c3cc(F)cc4c3c2CCNC4=O)cc1` [RUCAPARIB]: the Kp uu in series [2] is less than 0.1. In series [3], this compound had a negative logarithm of the IC50 (pIC50) of 7.41.

Compound `CCc1cc2ncc(CN3CCN(c4ccc(C(=O)NC)nc4)CC3)cc2[nH]c1=O` [SARUPARIB] showed a negative logarithm of the IC50 (pIC50) on hERG (KCNH2) of less than 4.40. Further, the Kp uu in series [2] is less than 0.1. Also, in series [5], the microsomal CLint is less than 6 µL/min/mg.

As for `Cn1ncnc1[C@H]1c2n[nH]c(=O)c3cc(F)cc(c23)N[C@@H]1c1ccc(F)cc1` [TALAZOPARIB], in [2], the Kp uu is less than 0.1.

Take `C[C@]1(c2nc3c(C(N)=O)cccc3[nH]2)CCCN1` [VELIPARIB]: the Kp uu in series [2] was 0.19. In addition, the pIC50 in series [3] is 5.89.
